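Interpolation was linear, between the two tested concentrations surrounding the appropriate level; five concentrations were tested over 48 hours in 96-well plates. Definition used: TGI = concentration required for complete inhibition of growth.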
Assays:
Experiment in all cases: growth of human tumour cells (NCI), 48 h
HT29 colon = system: HT29 colon
HCC-2998 colon = system: HCC-2998 colon
NCI/ADR-RES ovarian = system: NCI/ADR-RES ovarian
SK-MEL-28 melanoma = system: SK-MEL-28 melanoma
UACC-257 melanoma = system: UACC-257 melanoma
SK-OV-3 ovarian = system: SK-OV-3 ovarian
CCRF-CEM leukemia = system: CCRF-CEM leukemia
M14 melanoma = system: M14 melanoma
786-0 renal = system: 786-0 renal
RXF 393 renal = system: RXF 393 renal
EKVX NSCLC = system: EKVX NSCLC
HCT-15 colon = system: HCT-15 colon
HOP-62 NSCLC = system: HOP-62 NSCLC
HOP-92 NSCLC = system: HOP-92 NSCLC
OVCAR-5 ovarian = system: OVCAR-5 ovarian
SW-620 colon = system: SW-620 colon
U251 CNS = system: U251 CNS
NCI-H23 lung = system: NCI-H23 lung
MDA-N = system: MDA-N
PC-3 prostate = system: PC-3 prostate
SF-268 CNS = system: SF-268 CNS
DU-145 prostate = system: DU-145 prostate
SK-MEL-2 melanoma = system: SK-MEL-2 melanoma
A498 renal = system: A498 renal
MDA-MB-231 breast = system: MDA-MB-231 breast
MALME-3M melanoma = system: MALME-3M melanoma
SF-295 CNS = system: SF-295 CNS
NCI-H226 lung = system: NCI-H226 lung
T-47D breast = system: T-47D breast
TK-10 renal = system: TK-10 renal
UO-31 renal = system: UO-31 renal
SNB-75 CNS = system: SNB-75 CNS
MCF7 breast = system: MCF7 breast
COLO 205 colon = system: COLO 205 colon
OVCAR-8 ovarian = system: OVCAR-8 ovarian
SNB-19 CNS = system: SNB-19 CNS
A549 NSCLC = system: A549 NSCLC
LOX IMVI melanoma = system: LOX IMVI melanoma
NCI-H460 lung = system: NCI-H460 lung
SK-MEL-5 melanoma = system: SK-MEL-5 melanoma
SN12C renal = system: SN12C renal
IGROV1 ovarian = system: IGROV1 ovarian
NCI-H522 lung = system: NCI-H522 lung
BT-549 breast = system: BT-549 breast
HS 578T breast = system: HS 578T breast
ACHN renal = system: ACHN renal
HCT-116 colon = system: HCT-116 colon
UACC-62 melanoma = system: UACC-62 melanoma

Measured: TGI

CCC1CCN=C(Cn2cc(C)c(=O)[nH]c2=O)N1 (stereo not drawn)
> 100 µM: all assays above
